From patent US20020034545A1, “Particulate composition of eletriptan” (priority 2000, published 2002)
Values after ≈ are worked out from the molar mass of the structure shown. Counter-ions that a name gives are not always drawn.

Experiment: physchem
Assay type: physicochemical
From the text: Several salts of eletriptan have been identified that have properties which make them particularly suitable for development as drug substances. […] It is therefore desirable to provide a controlled release formulation capable of achieving a sigmoidal pattern of drug release and suitable for oral administration that is equally useful for the delivery of any form of eletriptan, regardless of its solubility.

aqueous solubility | solubility (20 °C, water, aqueous solubility) | Molecule
> 200000 µg/mL |  | eletriptan hemisulphate [hemisulphate salt]
2500 µg/mL (≈ 6.54 mM) |  | CN1CCC[C@@H]1Cc1c[nH]c2ccc(CCS(=O)(=O)c3ccccc3)cc12 [eletriptan free base, 3-{[1-methylpyrrolidin-2(R)-yl]methyl}-5-(2-phenylsulfonylethyl)-1H-indole]
 | 4000 µg/mL | CN1CCC[C@@H]1Cc1c[nH]c2ccc(CCS(=O)(=O)c3ccccc3)cc12 [hydrobromide salt, eletriptan hydrobromide]
